What was measured:
[1] = target: T1, IKZF1 ZNF2_ZNF3 Q1F degron-tagged CD19 CAR (Homo sapiens, UniProt Q13422, Q146F); assay: Degradation of Q1F degron-tagged CD19 CAR in Jurkat cells (flow cytometry of CAR levels); assay type: cell-based; conditions: for DC50: Jurkat cells expressing CD19 CAR tagged with IKZF1 ZNF2_ZNF3 Q1F, 18 hours at 37° C., CAR levels normalized to untreated cells, read-out: Q1F Jurkat IC50; for Dmax: Ymax is the % protein degraded, Jurkat cells expressing Q1F degron-tagged CD19 CAR, 18 hours, read-out: Q1F Jurkat-YMax
T1 construct: ZNF2_ZNF3 Q1F degron (GERPFFCNQCGASFTQKGNLLRHIKLHSGEKPFKCHLCNYACRRRDALTGHLRTHS); fused on or other part: anti-CD19 scFv, CD28 transmembrane domain, 4-1BB costimulatory domain, CD3 zeta signaling domain (the CAR that carries the degron), and Nluc
T1 sequence (Q13422 whole entry Q146F, the tested form may be a part): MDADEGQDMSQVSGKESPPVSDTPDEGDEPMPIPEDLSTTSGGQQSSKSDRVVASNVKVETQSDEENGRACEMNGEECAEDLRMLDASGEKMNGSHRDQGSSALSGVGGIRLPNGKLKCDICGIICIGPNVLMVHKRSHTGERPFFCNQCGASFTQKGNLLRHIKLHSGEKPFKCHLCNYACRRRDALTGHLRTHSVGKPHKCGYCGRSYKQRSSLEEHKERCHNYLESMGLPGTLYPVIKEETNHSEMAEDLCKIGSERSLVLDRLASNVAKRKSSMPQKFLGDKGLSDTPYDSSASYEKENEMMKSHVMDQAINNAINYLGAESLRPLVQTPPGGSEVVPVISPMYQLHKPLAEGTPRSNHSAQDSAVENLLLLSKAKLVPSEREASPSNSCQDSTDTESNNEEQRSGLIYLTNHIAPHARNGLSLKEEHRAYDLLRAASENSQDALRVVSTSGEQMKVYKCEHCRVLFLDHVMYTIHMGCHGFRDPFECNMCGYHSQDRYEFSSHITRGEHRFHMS
Method in brief: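 Jurkat cells were lentivirally transduced with an anti-CD19 scFv/CD28 TM/4-1BB/CD3ζ CAR tagged with an IKZF1 ZNF2_ZNF3 Q1F degron–Nluc, then treated with compound titrations for 18 h at 37 °C. CAR surface levels were stained (20 min, 4 °C), read by flow cytometry and normalised to untreated cells. EC50 came from a four-parameter logistic fit; Ymin is the minimum % CAR remaining.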

Helios = target: T2, Helios (Homo sapiens, UniProt Q9UKS7); assay: Helios degradation in Jurkat/Helios/HiBit cells (Nano-Glo luminescence); assay type: cell-based; conditions: 18 hr, read-out: Helios Jurkat Hibit IC50
T2 construct: endogenous in cells; host or cells: Jurkat cells, CRISPR/Cas9 knock-in of HiBit at the IKZF2 locus
T2 sequence (Q9UKS7 whole entry): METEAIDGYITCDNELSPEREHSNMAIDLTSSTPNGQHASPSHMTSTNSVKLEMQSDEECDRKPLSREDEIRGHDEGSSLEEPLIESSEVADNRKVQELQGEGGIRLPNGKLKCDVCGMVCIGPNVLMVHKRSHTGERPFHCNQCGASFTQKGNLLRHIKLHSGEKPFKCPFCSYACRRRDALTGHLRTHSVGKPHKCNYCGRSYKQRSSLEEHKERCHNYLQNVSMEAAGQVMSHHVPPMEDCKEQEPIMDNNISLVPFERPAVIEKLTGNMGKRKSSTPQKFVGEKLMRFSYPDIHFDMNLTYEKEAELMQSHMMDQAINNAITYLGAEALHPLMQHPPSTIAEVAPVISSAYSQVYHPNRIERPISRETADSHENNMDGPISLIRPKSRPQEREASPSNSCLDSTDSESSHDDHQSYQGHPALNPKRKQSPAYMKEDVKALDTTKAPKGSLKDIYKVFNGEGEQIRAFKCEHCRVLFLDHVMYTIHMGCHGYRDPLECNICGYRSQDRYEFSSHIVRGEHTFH
T2 sequence (Q96SW2 whole entry, further chain): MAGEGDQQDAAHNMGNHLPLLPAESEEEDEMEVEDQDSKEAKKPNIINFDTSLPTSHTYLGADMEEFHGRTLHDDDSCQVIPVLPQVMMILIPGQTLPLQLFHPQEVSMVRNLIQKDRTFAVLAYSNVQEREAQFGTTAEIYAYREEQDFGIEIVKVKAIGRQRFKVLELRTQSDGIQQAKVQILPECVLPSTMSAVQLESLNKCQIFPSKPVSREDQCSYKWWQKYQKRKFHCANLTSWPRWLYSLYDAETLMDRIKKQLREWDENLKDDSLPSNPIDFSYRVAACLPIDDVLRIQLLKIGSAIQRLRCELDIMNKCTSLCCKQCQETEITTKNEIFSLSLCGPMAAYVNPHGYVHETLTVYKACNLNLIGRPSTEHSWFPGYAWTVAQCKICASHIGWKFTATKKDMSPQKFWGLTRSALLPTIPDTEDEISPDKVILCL
T2 sequence (Q16531 whole entry partner): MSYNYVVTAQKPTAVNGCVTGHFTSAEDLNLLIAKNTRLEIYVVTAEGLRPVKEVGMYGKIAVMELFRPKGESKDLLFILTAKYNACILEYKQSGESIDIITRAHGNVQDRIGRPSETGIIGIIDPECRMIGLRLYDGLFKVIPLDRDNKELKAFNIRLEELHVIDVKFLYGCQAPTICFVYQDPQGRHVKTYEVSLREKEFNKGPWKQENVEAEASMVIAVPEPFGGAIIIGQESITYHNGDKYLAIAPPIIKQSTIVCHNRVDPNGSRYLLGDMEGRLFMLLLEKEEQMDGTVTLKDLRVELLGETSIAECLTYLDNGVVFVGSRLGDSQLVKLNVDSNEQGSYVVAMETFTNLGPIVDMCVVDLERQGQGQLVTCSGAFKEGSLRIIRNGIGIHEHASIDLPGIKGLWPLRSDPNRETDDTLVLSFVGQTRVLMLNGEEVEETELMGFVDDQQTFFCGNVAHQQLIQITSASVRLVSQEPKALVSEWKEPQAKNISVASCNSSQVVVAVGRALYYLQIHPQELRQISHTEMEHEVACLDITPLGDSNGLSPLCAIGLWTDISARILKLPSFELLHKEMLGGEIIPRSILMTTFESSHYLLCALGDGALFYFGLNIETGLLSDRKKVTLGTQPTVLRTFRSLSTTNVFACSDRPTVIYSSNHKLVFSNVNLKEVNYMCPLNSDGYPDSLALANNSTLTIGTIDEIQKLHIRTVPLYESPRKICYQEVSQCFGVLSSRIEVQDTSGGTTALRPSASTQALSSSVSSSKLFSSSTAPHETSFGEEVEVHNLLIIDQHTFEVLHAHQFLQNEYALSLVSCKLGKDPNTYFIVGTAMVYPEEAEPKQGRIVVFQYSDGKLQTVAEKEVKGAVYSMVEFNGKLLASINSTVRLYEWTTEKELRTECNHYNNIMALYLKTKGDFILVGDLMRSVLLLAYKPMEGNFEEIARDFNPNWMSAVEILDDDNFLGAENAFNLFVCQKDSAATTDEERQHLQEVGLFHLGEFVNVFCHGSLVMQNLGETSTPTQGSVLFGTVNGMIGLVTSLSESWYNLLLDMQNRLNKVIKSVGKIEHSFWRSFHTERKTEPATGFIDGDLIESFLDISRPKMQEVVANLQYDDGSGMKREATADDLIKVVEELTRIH
Method in brief: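 Jurkat cells carrying CRISPR-knocked-in C-terminal HiBit-tagged endogenous IKZF2 were treated with compound in DMEM/10% FCS (10,000 cells/well) for 18 h at 37 °C. HiBit signal was read by Nano-Glo luminescence after 30 min at RT. EC50 for degradation came from a four-parameter logistic fit, with Ymax as % protein degraded.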

Compound	DC50 [1] [nM]	Dmax [1] [%]	DC50 (Helios) [nM]
CC(=O)Nc1ccc(CN2CCC(c3c(F)cc4c(c3F)CN(C3CCC(=O)NC3=O)C4=O)CC2)cc1 (stereo not drawn) [Compound 101, N-(4-((4-(2-(2,6-dioxopiperidin-3-yl)-4,6-difluoro-1-oxoisoindolin-5-yl)piperidin-1-yl)methyl)phenyl)acetamide]	0.473	86.9	≥ 10000
O=C1CCC(N2Cc3c(cc(F)c(C4CCN(Cc5ccncc5)CC4)c3F)C2=O)C(=O)N1 (stereo not drawn) [Compound 117, 3-(4,6-difluoro-1-oxo-5-(1-(pyridin-4-ylmethyl)piperidin-4-yl)isoindolin-2-yl)piperidine-2,6-dione]	6.26	86.1	≥ 10000
O=C1CCC(N2Cc3cc(C4CCN(Cc5nc6ccccc6s5)CC4)c(F)cc3C2=O)C(=O)N1 (stereo not drawn) [Compound 83, 3-(5-(1-(benzo[d]thiazol-2-ylmethyl)piperidin-4-yl)-6-fluoro-1-oxoisoindolin-2-yl)piperidine-2,6-dione]	19.9	76.8	≥ 10000
Cc1nc(CN2CCC(c3c(F)cc4c(c3F)CN(C3CCC(=O)NC3=O)C4=O)CC2)c(C)o1 (stereo not drawn) [Compound 56, 3-(5-(1-((2,5-dimethyloxazol-4-yl)methyl)piperidin-4-yl)-4,6-difluoro-1-oxoisoindolin-2-yl)piperidine-2,6-dione]	0.571	84.4	≥ 10000
O=C1CCC(N2Cc3c(cc(F)c(C4(O)CCN(Cc5ccc6nc[nH]c6c5)CC4)c3F)C2=O)C(=O)N1 (stereo not drawn) [Compound 44, 3-[5-[1-(3H-benzimidazol-5-ylmethyl)-4-hydroxy-4-piperidyl]-4,6-difluoro-1-oxo-isoindolin-2-yl]piperidine-2,6-dione]	120	82.1	≥ 10000
O=C1CCC(N2Cc3c(cc(F)c(C4CCN(Cc5ccc6scnc6c5)CC4)c3F)C2=O)C(=O)N1 (stereo not drawn) [Compound 54, 3-(5-(1-(benzo[d]thiazol-5-ylmethyl)piperidin-4-yl)-4,6-difluoro-1-oxoisoindolin-2-yl)piperidine-2,6-dione]	0.114	93.3	≥ 10000
Cc1ccc(CN2CCC(O)(c3c(F)cc4c(c3F)CN(C3CCC(=O)NC3=O)C4=O)CC2)cc1F (stereo not drawn) [Compound 28, 3-(4,6-difluoro-5-(1-(3-fluoro-4-methylbenzyl)-4-hydroxypiperidin-4-yl)-1-oxoisoindolin-2-yl)piperidine-2,6-dione]	4.78	79.4	≥ 10000
Cc1cc(CN2CCC(c3c(F)cc4c(c3F)CN(C3CCC(=O)NC3=O)C4=O)CC2)nn1C (stereo not drawn) [Compound 103, 3-(5-(1-((1,5-dimethyl-1H-pyrazol-3-yl)methyl)piperidin-4-yl)-4,6-difluoro-1-oxoisoindolin-2-yl)piperidine-2,6-dione]	1.96	84.7	≥ 10000
Cc1cc(Br)cnc1CN1CCC(c2c(F)cc3c(c2F)CN(C2CCC(=O)NC2=O)C3=O)CC1 (stereo not drawn) [Compound 48, 3-(5-(1-((5-bromo-3-methylpyridin-2-yl)methyl)piperidin-4-yl)-4,6-difluoro-1-oxoisoindolin-2-yl)piperidine-2,6-dione]	2.24	87.8	≥ 10000
O=C1CCC(N2Cc3c(cc(F)c(C4CCN(CC5CCOC5)CC4)c3F)C2=O)C(=O)N1 (stereo not drawn) [Compound 7, 3-(4,6-difluoro-1-oxo-5-(1-((tetrahydrofuran-3-yl)methyl)piperidin-4-yl)isoindolin-2-yl)piperidine-2,6-dione]	0.265	86.2	≥ 10000
O=C1CCC(N2Cc3c(cc(F)c(C(=O)N4CCc5cc(F)c(F)cc5C4)c3F)C2=O)C(=O)N1 (stereo not drawn) [Compound 72, 3-[5-(6,7-difluoro-3,4-dihydro-1H-isoquinoline-2-carbonyl)-4,6-difluoro-1-oxo-isoindolin-2-yl]piperidine-2,6-dione]	21.2	92.5	≥ 10000
Cc1cc(Br)cnc1CN1CCCC(c2c(F)cc3c(c2F)CN(C2CCC(=O)NC2=O)C3=O)C1 (stereo not drawn) [Compound 68, 3-(5-(1-((5-bromo-3-methylpyridin-2-yl)methyl)piperidin-3-yl)-4,6-difluoro-1-oxoisoindolin-2-yl)piperidine-2,6-dione]	50.5	63.5	≥ 10000
O=C1CCC(N2Cc3c(cc(F)c(C(=O)Nc4nccn4C4CCC4)c3F)C2=O)C(=O)N1 (stereo not drawn) [Compound 74, N-(1-cyclobutyl-1H-imidazol-2-yl)-2-(2,6-dioxopiperidin-3-yl)-4,6-difluoro-1-oxoisoindoline-5-carboxamide]	108	74.9	≥ 10000
O=C1CCC(N2Cc3c(cc(F)c(C4CCN(Cc5ccc(F)cc5)CC4)c3F)C2=O)C(=O)N1 (stereo not drawn) [Compound 2, 3-(4,6-difluoro-5-(1-(4-fluorobenzyl)piperidin-4-yl)-1-oxoisoindolin-2-yl)piperidine-2,6-dione]	1.43	88.8	≥ 10000
O=C1CCC(N2Cc3c(cc(F)c(C4(O)CCN(Cc5n[nH]c6ccccc56)CC4)c3F)C2=O)C(=O)N1 (stereo not drawn) [Compound 41, 3-[4,6-difluoro-5-[4-hydroxy-1-(1H-indazol-3-ylmethyl)-4-piperidyl]-1-oxo-isoindolin-2-yl] piperidine-2,6-dione]	95.3	66.2	≥ 10000
O=C1CCC(N2Cc3cc(C4CCN(Cc5ccc6ncsc6c5)CC4)c(F)cc3C2=O)C(=O)N1 (stereo not drawn) [Compound 81, 3-(5-(1-(benzo[d]thiazol-6-ylmethyl)piperidin-4-yl)-6-fluoro-1-oxoisoindolin-2-yl) piperidine-2,6-dione]	3.06	93	≥ 10000
Cc1ccc(CN2CCC(c3cc4c(cc3F)C(=O)N(C3CCC(=O)NC3=O)C4)CC2)cc1 (stereo not drawn) [Compound 84, 3-(6-fluoro-5-(1-(4-methylbenzyl)piperidin-4-yl)-1-oxoisoindolin-2-yl)piperidine-2,6-dione]	2.1	90.3	≥ 10000
O=C1CCC(N2Cc3c(cc(F)c(CNC(=O)c4ccc5c(c4)CCC5)c3F)C2=O)C(=O)N1 (stereo not drawn) [Compound 92, N-((2-(2,6-dioxopiperidin-3-yl)-4,6-difluoro-1-oxoisoindolin-5-yl)methyl)-2,3-dihydro-1H-indene-5-carboxamide]	9.16	63.2	≥ 10000
CS(=O)(=O)Nc1cccc(CN2CCC(c3c(F)cc4c(c3F)CN(C3CCC(=O)NC3=O)C4=O)CC2)c1 (stereo not drawn) [Compound 109, N-(3-((4-(2-(2,6-dioxopiperidin-3-yl)-4,6-difluoro-1-oxoisoindolin-5-yl)piperidin-1-yl)methyl)phenyl) methanesulfonamide]	2.28	91.5	≥ 10000
O=C1CCC(N2Cc3c(cc(F)c(C4(O)CCN(Cc5ccc(C(F)(F)F)cc5O)CC4)c3F)C2=O)C(=O)N1 (stereo not drawn) [Compound 22, 3-(4,6-difluoro-5-(4-hydroxy-1-(2-hydroxy-4-(trifluoromethyl)benzyl)piperidin-4-yl)-1-oxoisoindolin-2-yl)piperidine-2,6-dione]	14.3	80	≥ 10000
O=C1CCC(N2Cc3c(cc(F)c(C4CCN(Cc5ccc(-c6ccccc6)o5)CC4)c3F)C2=O)C(=O)N1 (stereo not drawn) [Compound 5, 3-(4,6-difluoro-1-oxo-5-(1-((5-phenylfuran-2-yl)methyl)piperidin-4-yl)isoindolin-2-yl)piperidine-2,6-dione]	5.7	85.8	≥ 10000
O=C1CCC(N2Cc3c(cc(F)c(C4CCN(CC(c5ccccc5)c5ccccc5)CC4)c3F)C2=O)C(=O)N1 (stereo not drawn) [Compound 10, 3-(5-(1-(2,2-diphenylethyl)piperidin-4-yl)-4,6-difluoro-1-oxoisoindolin-2-yl)piperidine-2,6-dione]	0.202	90.7	≥ 10000
O=C1CCC(N2Cc3cc(C4CCN(Cc5ccc6cn[nH]c6c5)CC4)c(F)cc3C2=O)C(=O)N1 (stereo not drawn) [Compound 87, 3-(5-(1-((1H-indazol-6-yl)methyl)piperidin-4-yl)-6-fluoro-1-oxoisoindolin-2-yl)piperidine-2,6-dione]	4.06	94.2	≥ 10000
O=C1CC[C@H](N2Cc3c(cc(F)c(C4CC5CCC(C4)N5Cc4ccc5ncsc5c4)c3F)C2=O)C(=O)N1 (stereo partly drawn) [Compound 126, (3S)-3-(5-(8-(benzo[d]thiazol-6-ylmethyl)-8-azabicyclo[3.2.1]octan-3-yl)-4,6-difluoro-1-oxoisoindolin-2-yl)piperidine-2,6-dione]	0.427	92.2	≥ 10000
Cc1cc(Br)cnc1C(=O)N1CCC(c2c(F)cc3c(c2F)CN(C2CCC(=O)NC2=O)C3=O)CC1 (stereo not drawn) [Compound 66, 3-(5-(1-(5-bromo-3-methylpicolinoyl)piperidin-4-yl)-4,6-difluoro-1-oxoisoindolin-2-yl) piperidine-2,6-dione]	46.1	74.9	≥ 10000

Reference: patent publication US20240327381A1, “Compounds and Compositions for Selective Degradation of Engineered Proteins” (Celgene Corporation, priority 2023, published 2024)
